Experimental data from patent US10865208B2, “ATG7 inhibitors and the uses thereof” (Millennium Pharmaceuticals, Inc., priority 2016, dated 2020).

Target: recombinant human His-ATG7 enzyme (Homo sapiens (Human), UniProt O95352)
Experiment: ATG7 Enzyme Assay (HTRF/FRET, ATG3-GST and Flag-Gabarap)
Assay type: biochemical
Details: for inhibition at 0.123 µM / inhibition at 0.111 µM: read-out: Percent Inhibition; for inhibition at 0.111 µM: Concentration 0.111 μM
Protocol: Example 97: ATG7 Enzyme Assay
The total volume of the ATG7 enzymatic assay is 50 μL and contains 50 mM HEPES Hemisodium (pH 7.5), 0.05% BSA, 0.01% Tween-20, 25 mM NaCl, 5 mM MgCl2, 10 μM ATP, 250 μM GSH, 5 nM ATG3-GST, 5 nM Flag-Gabarap, 100 μM TCEP and 0.15 nM recombinant human His-ATG7 enzyme. The enzymatic reaction mixture, with and without inhibitor, was incubated at 24° C. for 105 min in a 384-well plate before termination with […] of Stop/Detection buffer (0.1M HEPES Hemisodium pH 7.5, 0.05% Tween20, 20 mM EDTA, 410 mM KF, 0.53 nM Europium-Cryptate labeled monoclonal anti-Flag M2 Antibody (CisBio International) and 8.125 μg/ml PHYCOLINK goat anti-GST allophycocyanin (XL-APC) antibody (Prozyme)). After incubation for 2 hours at 24° C., quantification of FRET is performed on the Pherostar™ (BMG Labtech). Percentage inhibition values at a single concentration or enzyme inhibition (IC50) values are determined from those curves. One skilled in the art will appreciate that the values generated either as percentage inhibition at a single concentration or IC50 values are subject to experimental variation.

Chain of recombinant human His-ATG7 enzyme (O95352 whole entry): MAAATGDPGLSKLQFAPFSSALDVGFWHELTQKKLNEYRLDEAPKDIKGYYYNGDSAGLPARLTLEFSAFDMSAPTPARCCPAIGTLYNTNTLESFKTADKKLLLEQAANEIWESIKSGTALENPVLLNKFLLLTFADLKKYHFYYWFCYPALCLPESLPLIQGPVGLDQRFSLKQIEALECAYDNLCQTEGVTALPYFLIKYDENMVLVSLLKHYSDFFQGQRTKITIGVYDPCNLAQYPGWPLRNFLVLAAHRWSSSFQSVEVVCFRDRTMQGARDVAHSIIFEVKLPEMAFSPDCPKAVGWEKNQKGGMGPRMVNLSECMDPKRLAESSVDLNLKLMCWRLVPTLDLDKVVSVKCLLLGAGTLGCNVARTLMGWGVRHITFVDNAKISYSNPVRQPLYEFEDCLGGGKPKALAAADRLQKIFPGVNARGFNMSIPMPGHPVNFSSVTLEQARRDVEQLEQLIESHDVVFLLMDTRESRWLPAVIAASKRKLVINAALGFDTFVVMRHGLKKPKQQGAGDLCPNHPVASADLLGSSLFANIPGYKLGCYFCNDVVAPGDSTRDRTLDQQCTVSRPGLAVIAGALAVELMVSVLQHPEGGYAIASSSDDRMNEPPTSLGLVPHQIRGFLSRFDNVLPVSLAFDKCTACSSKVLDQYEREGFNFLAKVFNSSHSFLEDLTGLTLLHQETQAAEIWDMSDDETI

| Structure (SMILES) | IC50 | inhibition at 0.123 µM (Concentration 0.123 μM) | inhibition at 0.111 µM | Percent Inhibition (Concentration 0.123 μM) |
| --- | --- | --- | --- | --- |
| COC(C)c1nn([C@@H]2O[C@H](COS(N)(=O)=O)[C@@H](O)[C@H]2O)c2ncnc(N)c12 (mixture of isomers) [Compound I-22, [(2R,3S,4R,5R)-5-{4-amino-3-[(1R)-1-methoxyethyl]-1H-pyrazolo[3,4-d]pyrimidin-1-yl}-3,4-dihydroxytetrahydrofuran-2-yl]methyl Sulfamate and [(2R,3S,4R,5R)-5-{4-amino-3-[(1S)-1-methoxyethyl]-1H-pyrazolo[3,4-d]pyrimidin-1-yl}-3,4-dihydroxytetrahydrofuran-2-yl]methyl Sulfamate] | > 500 nM | 5% |  |  |
| Nc1ncnc2c1c(SC1CCCCC1O)nn2[C@@H]1O[C@H](COS(N)(=O)=O)[C@@H](O)[C@H]1O (mixture of isomers) [Compound I-47, [(2R,3S,4R,5R)-5-(4-amino-3-{[(1R,2R)-2-hydroxycyclohexyl]sulfanyl}-1H-pyrazolo[3,4-d]pyrimidin-1-yl)-3,4-dihydroxytetrahydrofuran-2-yl]methyl Sulfamate and [(2R,3S,4R,5R)-5-(4-amino-3-{[(1S,2S)-2-hydroxycyclohexyl]sulfanyl}-1H-pyrazolo[3,4-d]pyrimidin-1-yl)-3,4-dihydroxytetrahydrofuran-2-yl]methyl Sulfamate] | 100 to 500 nM | 48% |  |  |
| Nc1ncnc2c1c(SC1CCCC1O)nn2[C@@H]1O[C@H](COS(N)(=O)=O)[C@@H](O)[C@H]1O (mixture of isomers) [Compound I-54, [(2R,3S,4R,5R)-5-(4-amino-3-{[(1R,2R)-2-hydroxycyclopentyl]sulfanyl}-1H-pyrazolo[3,4-d]pyrimidin-1-yl)-3,4-dihydroxytetrahydrofuran-2-yl]methyl Sulfamate and [(2R,3S,4R,5R)-5-(4-amino-3-{[(1S,2S)-2-hydroxycyclopentyl]sulfanyl}-1H-pyrazolo[3,4-d]pyrimidin-1-yl)-3,4-dihydroxytetrahydrofuran-2-yl]methyl Sulfamate] | 20 to 50 nM | 75% |  |  |
| CC(Sc1nn([C@@H]2O[C@H](COS(N)(=O)=O)[C@@H](O)[C@H]2O)c2ncnc(N)c12)c1ccccc1 (mixture of isomers) [Compound I-70, [(2R,3S,4R,5R)-5-(4-amino-3-{[(1R)-1-phenylethyl]sulfanyl}-1H-pyrazolo[3,4-d]pyrimidin-1-yl)-3,4-dihydroxytetrahydrofuran-2-yl]methyl sulfamate and [(2R,3S,4R,5R)-5-(4-amino-3-{[(1S)-1-phenylethyl]sulfanyl}-1H-pyrazolo[3,4-d]pyrimidin-1-yl)-3,4-dihydroxytetrahydrofuran-2-yl]methyl sulfamate] | 50 to 100 nM | 70% |  |  |
| CC(Sc1nn([C@@H]2O[C@H](COS(N)(=O)=O)[C@@H](O)[C@@H]2F)c2ncnc(N)c12)C(F)(F)F (mixture of isomers) [Compound I-101, [(2R,3R,4S,5R)-5-(4-amino-3-{[(2R)-1,1,1-trifluoropropan-2-yl]sulfanyl}-1H-pyrazolo[3,4-d]pyrimidin-1-yl)-4-fluoro-3-hydroxytetrahydrofuran-2-yl]methyl Sulfamate and [(2R,3R,4S,5R)-5-(4-amino-3-{[(2S)-1,1,1-trifluoropropan-2-yl]sulfanyl}-1H-pyrazolo[3,4-d]pyrimidin-1-yl)-4-fluoro-3-hydroxytetrahydrofuran-2-yl]methyl Sulfamate] | > 500 nM |  | 13% |  |
| Nc1ncnc2c1c(SC1CCOC1)nn2[C@@H]1O[C@H](COS(N)(=O)=O)[C@@H](O)[C@@H]1F (mixture of isomers) [Compound I-123, [(2R,3R,4S,5R)-5-{4-amino-3-[(3R)-tetrahydrofuran-3-ylsulfanyl]-1H-pyrazolo[3,4-d]pyrimidin-1-yl}-4-fluoro-3-hydroxytetrahydrofuran-2-yl]methyl sulfamate and [(2R,3R,4S,5R)-5-{4-amino-3-[(3S)-tetrahydrofuran-3-ylsulfanyl]-1H-pyrazolo[3,4-d]pyrimidin-1-yl}-4-fluoro-3-hydroxytetrahydrofuran-2-yl]methyl sulfamate] | 20 to 50 nM |  | 78% |  |
| Nc1ncnc2c1c(SCC1CC1(F)F)nn2[C@@H]1O[C@H](COS(N)(=O)=O)[C@@H](O)[C@@H]1F (mixture of isomers) [Compound I-131, {(2R,3R,4S,5R)-5-[4-amino-3-({[(1R)-2,2-difluorocyclopropyl]methyl}sulfanyl)-1H-pyrazolo[3,4-d]pyrimidin-1-yl]-4-fluoro-3-hydroxytetrahydrofuran-2-yl}methyl sulfamate and {(2R,3R,4S,5R)-5-[4-amino-3-({[(1S)-2,2-difluorocyclopropyl]methyl}sulfanyl)-1H-pyrazolo[3,4-d]pyrimidin-1-yl]-4-fluoro-3-hydroxytetrahydrofuran-2-yl}methyl sulfamate] | 20 to 50 nM |  | 76% |  |
| CCC(C)Sc1nn([C@@H]2O[C@H](COS(N)(=O)=O)[C@@H](O)[C@@H]2F)c2ncnc(N)c12 (mixture of isomers) [Compound I-136, [(2R,3R,4S,5R)-5-{4-amino-3-[(2R)-butan-2-ylsulfanyl]-1H-pyrazolo[3,4-d]pyrimidin-1-yl}-4-fluoro-3-hydroxytetrahydrofuran-2-yl]methyl sulfamate and [(2R,3R,4S,5R)-5-{4-amino-3-[(2S)-butan-2-ylsulfanyl]-1H-pyrazolo[3,4-d]pyrimidin-1-yl}-4-fluoro-3-hydroxytetrahydrofuran-2-yl]methyl sulfamate] | 20 to 50 nM |  | 69% |  |
| CC(CO)Sc1nn([C@@H]2O[C@H](COS(N)(=O)=O)[C@@H](O)[C@@H]2F)c2ncnc(N)c12 (mixture of isomers) [Compound I-144, [(2R,3R,4S,5R)-5-(4-amino-3-{[(2R)-1-hydroxypropan-2-yl]sulfanyl}-1H-pyrazolo[3,4-d]pyrimidin-1-yl)-4-fluoro-3-hydroxytetrahydrofuran-2-yl]methyl sulfamate and [(2R,3R,4S,5R)-5-(4-amino-3-{[(2S)-1-hydroxypropan-2-yl]sulfanyl}-1H-pyrazolo[3,4-d]pyrimidin-1-yl)-4-fluoro-3-hydroxytetrahydrofuran-2-yl]methyl sulfamate] | 20 to 50 nM |  | 74% |  |
| CC(C#N)Sc1nn([C@@H]2O[C@H](COS(N)(=O)=O)[C@@H](O)[C@@H]2F)c2ncnc(N)c12 (mixture of isomers) [Compound I-149, [(2R,3R,4S,5R)-5-(4-amino-3-{[(1R)-1-cyanoethyl]sulfanyl}-1H-pyrazolo[3,4-d]pyrimidin-1-yl)-4-fluoro-3-hydroxytetrahydrofuran-2-yl]methyl sulfamate and [(2R,3R,4S,5R)-5-(4-amino-3-{[(1S)-1-cyanoethyl]sulfanyl}-1H-pyrazolo[3,4-d]pyrimidin-1-yl)-4-fluoro-3-hydroxytetrahydrofuran-2-yl]methyl sulfamate] | 20 to 50 nM |  | 82% |  |
| CC(Sc1nn([C@@H]2O[C@H](COS(N)(=O)=O)[C@@H](O)[C@@H]2F)c2ncnc(N)c12)C1CC1 (mixture of isomers) [Compound I-157, [(2R,3R,4S,5R)-5-(4-amino-3-{[(1R)-1-cyclopropylethyl]sulfanyl}-1H-pyrazolo[3,4-d]pyrimidin-1-yl)-4-fluoro-3-hydroxytetrahydrofuran-2-yl]methyl sulfamate and [(2R,3R,4S,5R)-5-(4-amino-3-{[(1S)-1-cyclopropylethyl]sulfanyl}-1H-pyrazolo[3,4-d]pyrimidin-1-yl)-4-fluoro-3-hydroxytetrahydrofuran-2-yl]methyl sulfamate] | 20 to 50 nM |  | 71% |  |
| CC(O)c1nn([C@@H]2O[C@H](COS(N)(=O)=O)[C@@H](O)[C@H]2O)c2ncnc(N)c12 (single isomer, unassigned) [Compound I-23a, [(2R,3S,4R,5R)-5-{4-amino-3-[(1R)-1-hydroxyethyl]-1H-pyrazolo[3,4-d]pyrimidin-1-yl}-3,4-dihydroxytetrahydrofuran-2-yl]methyl sulfamate or [(2R,3S,4R,5R)-5-{4-amino-3-[(1S)-1-hydroxyethyl]-1H-pyrazolo[3,4-d]pyrimidin-1-yl}-3,4-dihydroxytetrahydrofuran-2-yl]methyl Sulfamate] | > 500 nM |  |  | 19% |
| CC(O)c1nn([C@@H]2O[C@H](COS(N)(=O)=O)[C@@H](O)[C@H]2O)c2ncnc(N)c12 (single isomer, unassigned) [Compound I-23b, [(2R,3S,4R,5R)-5-{4-amino-3-[(1R)-1-hydroxyethyl]-1H-pyrazolo[3,4-d]pyrimidin-1-yl}-3,4-dihydroxytetrahydrofuran-2-yl]methyl Sulfamate or [(2R,3S,4R,5R)-5-{4-amino-3-[(1S)-1-hydroxyethyl]-1H-pyrazolo[3,4-d]pyrimidin-1-yl}-3,4-dihydroxytetrahydrofuran-2-yl]methyl Sulfamate] | 100 to 500 nM | 22% |  |  |
